Data from paper PMC8159961, “Exploring protein hotspots by optimized fragment pharmacophores” (Nature Communications, 2021).

How the values were obtained:
human 5-HT1A receptor = target: T1, human 5-HT1A receptor (Homo sapiens, UniProt P08908); assay: GPCR radioligand binding assay, [3H]-8-OH-DPAT displacement, HEK293 membranes; details: for %inh 5-HT1A average: average of exp_1 and exp_2; for %inh 5-HT1A corrected*: average, values below 0 and above 100% were set as 0 and 100; for %inh 5-HT1A exp_1: replicate exp_1; for %inh 5-HT1A exp_2: replicate exp_2; for 5-HT1A % Inhibition by plate position: 10 µM
T1 construct: expressed in transfected cells
T1 sequence (P08908 1-422): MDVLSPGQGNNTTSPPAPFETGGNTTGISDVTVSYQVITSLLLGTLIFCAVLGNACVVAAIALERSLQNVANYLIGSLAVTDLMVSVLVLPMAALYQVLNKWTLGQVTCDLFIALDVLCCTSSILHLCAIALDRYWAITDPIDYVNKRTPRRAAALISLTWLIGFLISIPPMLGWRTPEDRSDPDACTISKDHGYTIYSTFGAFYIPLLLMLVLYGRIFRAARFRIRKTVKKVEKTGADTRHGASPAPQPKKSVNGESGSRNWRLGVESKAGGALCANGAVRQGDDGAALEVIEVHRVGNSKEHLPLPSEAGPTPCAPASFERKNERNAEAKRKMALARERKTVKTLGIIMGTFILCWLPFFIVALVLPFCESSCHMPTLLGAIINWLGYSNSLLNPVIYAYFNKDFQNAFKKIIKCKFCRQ

human 5-HT6 receptor = target: T2, human 5-HT6 receptor (Homo sapiens, UniProt P50406); assay: GPCR radioligand binding assay, [3H]-LSD displacement, HEK293 membranes; details: for 5-HT6 % Inhibition by plate position: 10 µM; for %inh 5-HT6 average: average of exp_1 and exp_2; for %inh 5-HT6 corrected*: average, values below 0 and above 100% were set as 0 and 100; for %inh 5-HT6 exp_1: replicate exp_1; for %inh 5-HT6 exp_2: replicate exp_2
T2 construct: expressed in transfected cells
T2 sequence (P50406 whole entry): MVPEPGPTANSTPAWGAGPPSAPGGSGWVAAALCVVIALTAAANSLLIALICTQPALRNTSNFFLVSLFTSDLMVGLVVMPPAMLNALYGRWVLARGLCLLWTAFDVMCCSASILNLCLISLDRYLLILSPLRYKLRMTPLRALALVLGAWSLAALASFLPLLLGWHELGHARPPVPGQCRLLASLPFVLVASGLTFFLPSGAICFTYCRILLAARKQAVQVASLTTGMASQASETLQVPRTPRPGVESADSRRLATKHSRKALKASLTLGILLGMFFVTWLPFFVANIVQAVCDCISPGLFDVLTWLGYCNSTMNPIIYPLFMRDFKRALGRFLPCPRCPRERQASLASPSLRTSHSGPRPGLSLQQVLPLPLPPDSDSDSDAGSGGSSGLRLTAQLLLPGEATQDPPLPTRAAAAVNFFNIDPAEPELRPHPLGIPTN

human 5-HT7b receptor = target: T3, human 5-HT7b receptor (Homo sapiens, UniProt P34969); assay: GPCR radioligand binding assay, [3H]-5-CT displacement, HEK293 membranes; details: for 5-HT7 % Inhibition by plate position: 10 µM; for %inh 5-HT7 average: average of exp_1 and exp_2; for %inh 5-HT7 exp_1: replicate exp_1; for %inh 5-HT7 exp_2: replicate exp_2
T3 construct: expressed in transfected cells
T3 sequence (P34969 1-432): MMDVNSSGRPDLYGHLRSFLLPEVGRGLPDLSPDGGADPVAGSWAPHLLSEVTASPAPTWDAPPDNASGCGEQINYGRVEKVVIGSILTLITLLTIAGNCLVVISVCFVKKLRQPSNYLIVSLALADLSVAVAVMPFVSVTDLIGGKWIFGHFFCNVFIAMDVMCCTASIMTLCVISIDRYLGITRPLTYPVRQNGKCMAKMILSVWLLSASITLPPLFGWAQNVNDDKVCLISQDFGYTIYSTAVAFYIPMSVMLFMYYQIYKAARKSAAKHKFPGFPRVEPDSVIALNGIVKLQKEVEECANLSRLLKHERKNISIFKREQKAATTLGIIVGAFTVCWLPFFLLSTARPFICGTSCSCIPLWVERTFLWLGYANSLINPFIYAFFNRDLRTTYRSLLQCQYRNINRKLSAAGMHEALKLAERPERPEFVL

| SMILES | %inh 5-HT1A average (human 5-HT1A receptor) [%] | %inh 5-HT1A corrected* (human 5-HT1A receptor) [%] | %inh 5-HT1A exp_1 (human 5-HT1A receptor) [%] | %inh 5-HT1A exp_2 (human 5-HT1A receptor) [%] | 5-HT6 % Inhibition by plate position (human 5-HT6 receptor) [%] | %inh 5-HT6 average (human 5-HT6 receptor) [%] | %inh 5-HT6 corrected* (human 5-HT6 receptor) [%] | %inh 5-HT6 exp_1 (human 5-HT6 receptor) [%] | %inh 5-HT6 exp_2 (human 5-HT6 receptor) [%] | 5-HT7 % Inhibition by plate position (human 5-HT7b receptor) [%] | %inh 5-HT7 average (human 5-HT7b receptor) [%] | %inh 5-HT7 exp_1 (human 5-HT7b receptor) [%] | %inh 5-HT7 exp_2 (human 5-HT7b receptor) [%] | 5-HT1A % Inhibition by plate position (human 5-HT1A receptor) [%] |
| --- | --- | --- | --- | --- | --- | --- | --- | --- | --- | --- | --- | --- | --- | --- |
| COc1cccc(NC2=NCCCCC2)c1 [E8] | 11 | 11 | 11 | 11 | 14 | 14 | 14 | 17 | 12 | 0 | -5 | 3.36 | -13 |  |
| O=C(O)C1CCCN(C(=O)N2CCCC2)C1 (stereo not shown) [G6] | 5 | 5 | 1 | 9 | 27 | 27 | 27 | 29 | 25 | 8.53 |  | 10 | 7 |  |
| O=C(O)c1cccc(Nc2ncccn2)c1 [F5] | 10 | 10 | 9 | 11 | 50 | 50 | 50 | 58 | 42 | 12 |  | 11 | 13 |  |
| Fc1ccc(CC2CCCNC2)cc1 (stereo not shown) [C1] | 21 | 21 | 23 | 19 | 42 | 42 | 42 | 47 | 37 | 22 |  | 27 | 18 |  |
| Nc1ccc(-c2ccccc2)cc1C(=O)O [G9] | 15 | 15 | 13 | 18 | 37 | 37 | 37 | 34 | 40 | 15 |  | 16 | 14 |  |
| c1ccc2sc(N3CCNCC3)nc2c1 [G5] | 83 | 83 | 78 | 88 | 42 | 42 | 42 | 49 | 35 | 28 |  | 32 | 25 |  |
| O=C(NC1CC1)c1ccccc1O [G4] | 1.71 | 1.71 | 3.42 | 0 | 24 | 24 | 24 | 28 | 20 | 0 | -12 | 1.81 | -25 |  |
| O=C1CC(CSc2ccc(Cl)cc2)=NN1 [H8] | -0.353 |  | -4 | 3.38 | 12 | 12 | 12 | 9 | 14 | 0 | -7 | -1 | -14 | 0 |
| O=C(CN1CCCC1)c1ccccc1Cl [G10] | 78 | 78 | 77 | 79 | 19 | 19 | 19 | 17 | 20 | 3.47 |  | 8 | -1 |  |
| NC1CCc2ccccc21 (stereo not shown) [B4] | 17 | 17 | 19 | 16 | 16 | 16 | 16 | 16 | 17 | 28 |  | 28 | 28 |  |
| CC(CN)N1CCc2sccc2C1 (stereo not shown) [F9] | 33 | 33 | 30 | 36 | 15 | 15 | 15 | 14 | 17 | 8 |  | 13 | 3.54 |  |
| COc1ccc(CN2CCNCC2)cc1F [D11] | -7 |  | 10 | -23 | 41 | 41 | 41 | 45 | 38 | 0 | -0.31 | -5 | 4.58 | 0 |
| N#Cc1ccc2ncsc2c1 [C12] | 5.41 | 5.41 | 11 | -0.546 | 35 | 35 | 35 | 39 | 32 | 0 | -7 | -6 | -8.5 |  |
| CCc1ccc(NC2=NCCCS2)cc1 [D2] | 29 | 29 | 30 | 27 | 16 | 16 | 16 | 19 | 13 | 6 |  | 12 | 0.291 |  |
| COc1ccccc1C1CCNCC1 [A11] | 99 | 99 | 100 | 98 | 71 | 71 | 71 | 82 | 59 | 73 |  | 64 | 81 |  |
| O=C(O)CC1CCC(=O)N1 (stereo not shown) [H2] | -0.447 |  | -9 | 8.47 | 16 | 16 | 16 | 18 | 15 | 7 |  | 4.76 | 9 | 0 |
| CN(C)c1cc(CN)ccn1 [G3] | 11 | 11 | 13 | 10 | 16 | 16 | 16 | 16 | 16 | 0 | -18 | -1.11 | -35 |  |
| Oc1ccc(C2CCNCC2)cc1 [E11] | 5.37 | 5.37 | 3 | 8 | 43 | 43 | 43 | 44 | 42 | 11 |  | 10 | 12 |  |
| FC1(F)CNCC(F)(F)O1 [H3] | -7 |  | 9 | -23 | 36 | 36 | 36 | 40 | 31 | 0 | -7 | -4 | -10 | 0 |
